Test results published in US20190142748A1 (priority 2016, published 2019).

Key:
[1] = Chlorambucil stability in aqueous solution (LCMS area percent); format: physicochemical; settings: chlorambucil in water (5% methanol)
[2] = oral; cited from earlier work
[3] = ten patients; cited from earlier work
[4] = molecular target: plasma proteins, specifically albumin (Homo sapiens, UniProt P02768); settings: in vitro; cited from earlier work
[5] = cited from earlier work

plasma proteins, specifically albumin, sequence (P02768 25-609): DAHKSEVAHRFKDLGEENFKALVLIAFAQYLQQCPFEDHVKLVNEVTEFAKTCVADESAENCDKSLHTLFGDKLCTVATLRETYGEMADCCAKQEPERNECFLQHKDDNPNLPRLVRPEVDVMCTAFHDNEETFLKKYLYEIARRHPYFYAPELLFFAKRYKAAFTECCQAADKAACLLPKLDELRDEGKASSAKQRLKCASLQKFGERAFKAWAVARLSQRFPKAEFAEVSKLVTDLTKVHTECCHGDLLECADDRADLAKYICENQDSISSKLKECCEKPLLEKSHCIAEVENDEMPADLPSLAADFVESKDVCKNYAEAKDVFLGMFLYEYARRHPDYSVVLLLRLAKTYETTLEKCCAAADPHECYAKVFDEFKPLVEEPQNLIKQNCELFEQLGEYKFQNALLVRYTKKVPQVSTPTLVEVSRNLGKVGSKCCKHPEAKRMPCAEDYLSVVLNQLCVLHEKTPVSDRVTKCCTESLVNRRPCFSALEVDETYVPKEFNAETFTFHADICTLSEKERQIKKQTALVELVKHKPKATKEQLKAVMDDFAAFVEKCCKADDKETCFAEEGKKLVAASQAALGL

O=C(O)CCCc1ccc(N(CCCl)CCCl)cc1 [Chlorambucil]
Chlorambucil (Area %) ([1]; t 0 h): 98.3 Area % | Chlorambucil (Area %) ([1]; t 1 h): 85.3 Area % | Chlorambucil (Area %) ([1]; t 2 h): 74.8 Area % | Chlorambucil (Area %) ([1]; t 3 h): 64.4 Area % | Chlorambucil (Area %) ([1]; t 4 h): 58.9 Area % | Chlorambucil (Area %) ([1]; t 5 h): 53.1 Area % | absorbed from the gastrointestinal tract [2]: > 70% | increase of median Tmax by food intake [3]: 2 fold | reduction of dose-adjusted AUC by food intake [3]: 20% | reduction of dose-adjusted Cmax by food intake [3]: 55% | bound to plasma proteins [4]: 99% | solubility in acetone and in alcohol ([5]; acetone, alcohol): freely soluble | solubility in water ([5]; water): practically insoluble
